Laboratory results published in ChEMBL document CHEMBL6114960, “Discovery of First-in-Class FXR and HSD17B13 Dual Modulator for the Treatment of Metabolic Dysfunction-Associated Fatty Liver Disease” (J Med Chem, 2025).

Assays:
Bile acid receptor [1] = molecular target: T1, Bile acid receptor (Homo sapiens, UniProt Q96RI1); assay: Agonist activity at FXR-LBD (unknown origin) incubated for 3 hrs in presence of fluorescein-coactivator peptide by TR-FRET analysis
T1 sequence (Q96RI1 whole entry): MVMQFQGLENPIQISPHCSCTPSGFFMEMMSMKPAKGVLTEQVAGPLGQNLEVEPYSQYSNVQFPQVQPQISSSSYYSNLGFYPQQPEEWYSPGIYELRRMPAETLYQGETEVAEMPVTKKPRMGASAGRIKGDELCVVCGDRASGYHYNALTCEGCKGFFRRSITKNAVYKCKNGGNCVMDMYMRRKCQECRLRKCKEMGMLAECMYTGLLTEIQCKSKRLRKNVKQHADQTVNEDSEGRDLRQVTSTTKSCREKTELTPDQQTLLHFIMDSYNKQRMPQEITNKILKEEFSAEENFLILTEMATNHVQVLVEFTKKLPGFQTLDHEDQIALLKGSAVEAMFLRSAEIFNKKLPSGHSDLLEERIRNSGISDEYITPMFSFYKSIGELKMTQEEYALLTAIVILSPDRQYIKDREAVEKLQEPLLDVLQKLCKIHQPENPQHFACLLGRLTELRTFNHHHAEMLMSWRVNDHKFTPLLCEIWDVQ

Bile acid receptor [2] = molecular target: T1, Bile acid receptor; assay: Agonist activity at FXR (unknown origin) transfected in human HepG2 cells incubated for 24 hrs by luciferase assay; assay type: cell-based
[3] = molecular target: T2, 17-beta-hydroxysteroid dehydrogenase 13 (Homo sapiens, UniProt Q7Z5P4)
T2 sequence (Q7Z5P4 whole entry): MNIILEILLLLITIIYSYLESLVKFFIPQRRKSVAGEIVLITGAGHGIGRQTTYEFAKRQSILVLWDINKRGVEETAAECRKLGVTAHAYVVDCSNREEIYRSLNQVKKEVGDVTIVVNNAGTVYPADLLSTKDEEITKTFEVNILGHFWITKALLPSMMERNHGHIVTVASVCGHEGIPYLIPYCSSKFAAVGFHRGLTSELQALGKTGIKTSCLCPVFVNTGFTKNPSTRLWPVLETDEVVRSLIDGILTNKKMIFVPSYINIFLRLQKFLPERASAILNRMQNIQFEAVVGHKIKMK
Description: Inhibition of HSD17B13 (unknown origin) using beta-estradiol and FAC-NAD+ as substrate incubated for 2 hrs by NAD(P)H-Glo detection reagent based luminescence assay

Bile acid receptor [4] = molecular target: T1, Bile acid receptor; assay: Agonist activity at FXR (unknown origin)
Mus musculus = assay: Anti-MASH activity in western diet and CCl4 co-induced male C57BL/6 mouse model assessed as NAFLD activity score at 20 mg/kg, po administered with high fat diet and sugar water for 12 weeks with subsequent CCl4 administration three times a week and measured after 4 weeks of compound administration via gavage starting from 9th week (Rvb > 6); assay type: functional

SMILES	EC50 (Bile acid receptor [1]) [nM]	EC50 (Bile acid receptor [2]) [nM]	further results
Cc1cc(OCc2c(-c3c(Cl)cccc3Cl)noc2C2CC2)ccc1-c1ccc(C(=O)O)cc1	134	301	
O=C(O)c1cccc2nc(-c3ccc(OCc4c(-c5c(Cl)cccc5Cl)noc4C4CC4)cc3)cn12	121	186	IC50 [3]: 850 nM
O=C(O)c1ccc(-c2ccc(OCc3c(-c4c(Cl)cccc4Cl)noc3C3CC3)c(F)c2)cc1	143	475	
CC(C)c1onc(-c2ccccc2C(F)(F)F)c1COc1ccc(-c2ccc(C(=O)O)cc2)cc1	232	525	
O=C(O)C1=CC2NC(c3ccc(OCc4c(-c5c(Cl)cccc5Cl)noc4C4CC4)cc3)=NC2C=C1 (stereo unspecified)			IC50 [3]: 4350 nM
O=C(NCC1CC1)c1cccc(-c2ccc(OCc3c(-c4c(Cl)cccc4Cl)noc3C3CC3)cc2)c1	> 10000		
CC(C)(C)NC(=O)c1cccc(-c2ccc(OCc3c(-c4c(Cl)cccc4Cl)noc3C3CC3)cc2)c1	> 10000		
O=C(O)c1c(F)cc(-c2ccc(OCc3c(-c4c(Cl)cccc4Cl)noc3C3CC3)cc2)cc1F	531		
O=C(O)c1ccc(-c2ccc(OCc3c(-c4c(Cl)cccc4Cl)noc3C3CC3)cc2)c(C(F)(F)F)c1	119	288	
O=C(O)c1ccc(-c2ccc(OCc3c(-c4c(Cl)cccc4Cl)noc3C3CC3)cc2)s1	271	491	
O=C(O)c1ccc(-c2ccc(OCc3c(-c4c(Cl)cccc4Cl)noc3C3CC3)cc2)c(F)c1	114	282	
O=C(c1cccc(-c2ccc(OCc3c(-c4c(Cl)cccc4Cl)noc3C3CC3)cc2)c1)N1CCOCC1	> 10000		
Cc1cc(OCc2c(-c3c(Cl)cccc3Cl)noc2C2CC2)cc(C)c1-c1ccc(C(=O)O)cc1	85	261	
O=C(O)c1ccc(-c2ccc(OCc3c(-c4c(Cl)cccc4Cl)noc3C3CC3)cn2)cc1	697		
O=C(NC1CC1)c1cccc(-c2ccc(OCc3c(-c4c(Cl)cccc4Cl)noc3C3CC3)cc2)c1	579		
O=C(O)c1ccnc(N2CC(O)(c3ccc(OCc4c(-c5c(Cl)cccc5Cl)noc4C4CC4)cc3Cl)C2)c1 [CILOFEXOR]			EC50 (Bile acid receptor [4]): 58 nM
CC[C@H]1[C@@H](O)[C@@H]2[C@H](CC[C@]3(C)[C@@H]([C@H](C)CCC(=O)O)CC[C@@H]23)[C@@]2(C)CC[C@@H](O)C[C@@H]12 [OBETICHOLIC ACID]			IC50 [3]: > 10000 nM; Activity (Mus musculus): 3.5

Now from value to compound, other results behind:

EC50 (Bile acid receptor [1]) [nM]	EC50 (Bile acid receptor [2]) [nM]	SMILES	further results
974		CC(C)NC(=O)c1ccc(-c2ccc(OCc3c(-c4c(Cl)cccc4Cl)noc3C3CC3)cc2)cc1	
482		CN(C)C(=O)c1ccc(-c2ccc(OCc3c(-c4c(Cl)cccc4Cl)noc3C3CC3)cc2)cc1	
129	329	O=C(O)c1ccc(-c2ccc(OCc3c(-c4c(Cl)cccc4Cl)noc3C3CC3)cc2)nc1	
209	493	CN(C)C(=O)c1cccc(-c2ccc(OCc3c(-c4c(Cl)cccc4Cl)noc3C3CC3)cc2)c1	
193	239	O=C(O)c1ccc(-c2ccc(OCc3c(-c4c(Cl)cccc4Cl)noc3C3CC3)cc2)cc1Cl	
146	288	CNC(=O)c1ccc(-c2ccc(OCc3c(-c4c(Cl)cccc4Cl)noc3C3CC3)cc2)cc1	
> 10000		OCC1(c2cccc(-c3ccc(OCc4c(-c5c(Cl)cccc5Cl)noc4C4CC4)cc3)c2)CC1	
145	372	NC(=O)c1ccc(-c2ccc(OCc3c(-c4c(Cl)cccc4Cl)noc3C3CC3)cc2)cc1	
> 10000		OCCOc1ccc(-c2ccc(OCc3c(-c4c(Cl)cccc4Cl)noc3C3CC3)cc2)cc1	
